# Measurements taken from ChEMBL document CHEMBL3044763, “Inhibitory Activities of Rhodanine Derivatives on Plant Growth” (Biosci Biotechnol Biochem, 1996).
# Assays:
# [1] = Toxicity in Mus musculus ddY (mouse) assessed as mortality at 400 mg/kg, ip after 3 days; assay type: organism-based; parameters: dose 400 mg/kg, route intraperitoneal; settings: in vivo
# [2] = Toxicity in Mus musculus ddY (mouse) assessed as mortality at 350 mg/kg, ip after 1 day; assay type: organism-based; parameters: dose 350 mg/kg, route intraperitoneal; settings: in vivo
# [3] = Toxicity in Mus musculus ddY (mouse) assessed as mortality at 300 mg/kg, ip after 3 days; assay type: organism-based; parameters: dose 300 mg/kg, route intraperitoneal; settings: in vivo
# [4] = Toxicity in ip dosed Mus musculus ddY (mouse) assessed as mortality after 1 to 7 days; assay type: organism-based; settings: in vivo
# [5] = Toxicity in Mus musculus ddY (mouse) assessed as mortality at 375 mg/kg, ip after 7 days; assay type: organism-based; parameters: dose 375 mg/kg, route intraperitoneal; settings: in vivo
# [6] = Toxicity in Mus musculus ddY (mouse) assessed as mortality at 325 mg/kg, ip after 2 days; assay type: organism-based; parameters: dose 325 mg/kg, route intraperitoneal; settings: in vivo
# [7] = Toxicity in Mus musculus ddY (mouse) assessed as mortality at 350 mg/kg, ip after 3 days; assay type: organism-based; parameters: dose 350 mg/kg, route intraperitoneal; settings: in vivo
# [8] = Toxicity in Mus musculus ddY (mouse) assessed as mortality at 275 mg/kg, ip after 6 days; assay type: organism-based; parameters: dose 275 mg/kg, route intraperitoneal; settings: in vivo
# [9] = Toxicity in Mus musculus ddY (mouse) assessed as mortality at 375 mg/kg, ip after 2 days; assay type: organism-based; parameters: dose 375 mg/kg, route intraperitoneal; settings: in vivo
# [10] = Toxicity in Mus musculus ddY (mouse) assessed as mortality at 300 mg/kg, ip after 7 days; assay type: organism-based; parameters: dose 300 mg/kg, route intraperitoneal; settings: in vivo
# [11] = tested on: Brassica rapa subsp. oleifera; experiment: Growth inhibition of Brassica rapa subsp. oleifera assessed as chlorophyll a level at 5 x 10^-5 M after 7 days; assay type: functional; parameters: scale not given: the % may be the effect or the level left
# [12] = tested on: Brassica rapa subsp. oleifera; experiment: Growth inhibition of Brassica rapa subsp. oleifera assessed as chlorophyll a level at 3 x 10^-5 M after 7 days; assay type: functional; parameters: scale not given: the % may be the effect or the level left
# [13] = Toxicity in Mus musculus ddY (mouse) assessed as mortality at 375 mg/kg, ip after 3 days; assay type: organism-based; parameters: dose 375 mg/kg, route intraperitoneal; settings: in vivo
# [14] = Toxicity in Mus musculus ddY (mouse) assessed as mortality at 300 mg/kg, ip after 6 days; assay type: organism-based; parameters: dose 300 mg/kg, route intraperitoneal; settings: in vivo
# [15] = Toxicity in Mus musculus ddY (mouse) assessed as mortality at 375 mg/kg, ip after 4 days; assay type: organism-based; parameters: dose 375 mg/kg, route intraperitoneal; settings: in vivo
# [16] = tested on: Brassica rapa subsp. oleifera; experiment: Growth inhibition of Brassica rapa subsp. oleifera assessed as total chlorophyll level at 3 x 10^-5 M after 7 days; assay type: functional; parameters: scale not given: the % may be the effect or the level left
# [17] = Toxicity in Mus musculus ddY (mouse) assessed as mortality at 400 mg/kg, ip after 5 days; assay type: organism-based; parameters: dose 400 mg/kg, route intraperitoneal; settings: in vivo
# [18] = Toxicity in Mus musculus ddY (mouse) assessed as mortality at 275 mg/kg, ip after 2 days; assay type: organism-based; parameters: dose 275 mg/kg, route intraperitoneal; settings: in vivo
# [19] = Toxicity in Mus musculus ddY (mouse) assessed as mortality at 400 mg/kg, ip after 2 days; assay type: organism-based; parameters: dose 400 mg/kg, route intraperitoneal; settings: in vivo
# [20] = tested on: Brassica rapa subsp. oleifera; experiment: Growth inhibition of Brassica rapa subsp. oleifera assessed as chlorophyll a level at 1 x 10^-4 M after 7 days; assay type: functional; parameters: scale not given: the % may be the effect or the level left
# [21] = Toxicity in Mus musculus ddY (mouse) assessed as mortality at 325 mg/kg, ip after 4 days; assay type: organism-based; parameters: dose 325 mg/kg, route intraperitoneal; settings: in vivo
# [22] = Toxicity in Mus musculus ddY (mouse) assessed as mortality at 350 mg/kg, ip after 4 days; assay type: organism-based; parameters: dose 350 mg/kg, route intraperitoneal; settings: in vivo
# [23] = Toxicity in Mus musculus ddY (mouse) assessed as mortality at 300 mg/kg, ip after 5 days; assay type: organism-based; parameters: dose 300 mg/kg, route intraperitoneal; settings: in vivo
# [24] = Toxicity in Mus musculus ddY (mouse) assessed as mortality at 350 mg/kg, ip after 7 days; assay type: organism-based; parameters: dose 350 mg/kg, route intraperitoneal; settings: in vivo
# [25] = Toxicity in Mus musculus ddY (mouse) assessed as mortality at 350 mg/kg, ip after 6 days; assay type: organism-based; parameters: dose 350 mg/kg, route intraperitoneal; settings: in vivo
# [26] = Toxicity in Mus musculus ddY (mouse) assessed as mortality at 300 mg/kg, ip after 1 day; assay type: organism-based; parameters: dose 300 mg/kg, route intraperitoneal; settings: in vivo
# [27] = tested on: Brassica rapa subsp. oleifera; experiment: Growth inhibition of Brassica rapa subsp. oleifera assessed as root growth at 1 x 10^-4 M after 7 days; assay type: functional
# [28] = Toxicity in Mus musculus ddY (mouse) assessed as mortality at 300 mg/kg, ip after 2 days; assay type: organism-based; parameters: dose 300 mg/kg, route intraperitoneal; settings: in vivo
# [29] = tested on: Brassica rapa subsp. oleifera; experiment: Growth inhibition of Brassica rapa subsp. oleifera assessed as root growth at 5 x 10^-5 M after 7 days; assay type: functional
# [30] = tested on: Brassica rapa subsp. oleifera; experiment: Growth inhibition of Brassica rapa subsp. oleifera assessed as total chlorophyll level at 3 x 10^-4 M after 7 days; assay type: functional; parameters: scale not given: the % may be the effect or the level left
smiles,measurement,setting,value
O=C1CSC(=S)N1 [RHODANINE],mortality at 72 h,[1],100%
same,mortality at 24 h,[2],20%
same,mortality at 72 h,[3],40%
same,LD50,[4],311 mg/kg
same,mortality at 168 h,[5],100%
same,mortality at 48 h,[6],80%
same,mortality at 72 h,[7],80%
same,mortality at 144 h,[8],0%
same,mortality at 48 h,[9],100%
same,mortality at 168 h,[10],40%
same,Activity,[11],14.1%
same,Activity,[12],14.1%
same,mortality at 72 h,[13],100%
same,mortality at 144 h,[14],40%
same,mortality at 96 h,[15],100%
same,Activity,[16],19.19%
same,mortality at 120 h,[17],100%
same,mortality at 48 h,[18],0%
same,mortality at 48 h,[19],100%
same,Activity,[20],6.76%
same,mortality at 96 h,[21],80%
same,mortality at 96 h,[22],80%
same,mortality at 120 h,[23],40%
same,mortality at 168 h,[24],80%
same,mortality at 144 h,[25],80%
same,mortality at 24 h,[26],0%
same,Activity,[27],38.7 mm
same,mortality at 48 h,[28],40%
same,Root length,[29],42.5 mm
same,Activity,[30],3.52%
